Measured values as given in patent US20240415972A1, “MICROFRAGMENTED FAT TISSUE AS DRUG DELIVERY SYSTEM IN LIVER CANCER THERAPY” (LIPOGEMS INTERNATIONAL S.P.A., priority 2021, published 2024).
Converted amounts (≈) assume the structure as drawn. Like-named read-outs stand apart in the source and are kept apart here.

What was measured:
[1] = test system: Hep-3B cells; test: PTX anti-proliferative activity on Hep-3B cells in culture; assay type: cell-based, human
Protocol: In (A) PTX at different concentration from 0.1 to 1000 ng/ml was added to cultured Hep-3B cells After 72 hours of incubation cells were detached and counted. […] In (B) photographs (10× magnification) of Hep-3B cultured in presence of PTX showing its potent growth inhibition at concentration up to 25 ng/ml are reported.
To this end, different concentration of PTX (from 0.1 ng/ml to 1000 ng/ml) were added to culture medium.

[2] = test system: MIB-1/Ki67; test: Immunohistochemistry of proliferation marker MIB-1/Ki67 in Hep-3B tumor of treated mice; assay type: in vivo, athymic nude-Foxn1nu mice; settings: DMFAT-PTX at both dosages; free PTX 10 mg/kg
Protocol: After evaluation of conventional H&E stained, ten white sections were then obtained from each sample to be processed for immunohistochemical (IHC) staining. IHC was carried out automatically by means of Leica Bond MaxTM technology (Arginase, CK-PAN, CK7 and ANTI-EPATO) and Ventana Bench Mark Ultra (Ki-67): ANTI-HEPATO: antigen retrieval 30' EDTA, (dil. 1:300 clone […] Dako-Agilent); […] antigen retrieval 30' EDTA, (dil. 1:100 Clone SP156 Cell Marque […]. clone 30-9 Roche-Ventana); CK-PAN: antigen retrieval 5' Enzyma, (dil. 1:200 clone MNF116 Dako Agilent); CK-7: antigen retrieval 15' EDTA, dil. 1:100 clone OV-TL 12/20 Dako Agilent. All section stained was evaluated on NIKON ECLIPSE E 600 Microscopy equipped with OLYMPUS DP21 Camera.

[3] = test system: Hep-3B tumor; test: In vivo anti-tumor activity, single-shot local injection next to sc Hep-3B tumor
Protocol: Five-week-old athymic nude-Foxn1nu mice were purchased from Envigo (Envigo, Bresso, Italy) and were housed under pathogen-free conditions. Experiments were reviewed and approved by the licensing and ethical committee of IZSLER (Istituto Zooprofilattico Sperimentale della Lombardia e dell'Emilia Romagna, Brescia, Italy) and by the Italian Ministry of Health.
In a preliminary experiment, 3 mice were injected subcutaneously (s.c.) with 5×10^6 Hep-3B cells in 100 ul of MTG in the right flank. Mice were observed daily to establish the day of tumor appearance and when the nodule was 1 cm in diameter, mice were sacrificed and tumor was removed and investigated to verify the HCC features by histological examination. […] In the first series of experiments, mice (n=6/group) were injected with 5×10^6 Hep-3B cells in the right flank (day 0). The tumors were allowed to grow to an average 0.5/0.7 cm in diameter corresponding to a tumor volume ranging from 65 to 179 mm^3 (median weight 120 mg) that were calculated using the formula 1/6πd^3 (13). […] Loading of PTX into just thawed DMFAT specimens were performed 20-30 minutes before injection as described above, adding 1 mg of PTX (around 166 μl of the stock PTX solution 6 mg/ml) to 1 ml of DMFAT and agitation. […] According to the ethical protocol, all the mice were sacrificed when the tumor nodule reached 2.0-2.5 cm in diameter (≥2 g of weight) or, whatever the diameter, sacrificed on day 60 after the transplant. […] Animals were euthanized with carbon dioxide inhalation, followed by cervical dislocation.

Compound: CC(=O)O[C@H]1C(=O)[C@@]2(C)[C@H]([C@H](OC(=O)c3ccccc3)[C@]3(O)C[C@H](OC(=O)[C@H](O)[C@@H](NC(=O)c4ccccc4)c4ccccc4)C(C)=C1C3(C)C)[C@]1(OC(C)=O)CO[C@@H]1C[C@@H]2O [PTX, Paclitaxel]
- IC50, dose of PTX required to reduce 50% Hep-3B growth ([1]; 72 hours of incubation, cells detached and counted): 0.015 ± 0.003 µg/mL
- IC50 ([1]; Homo sapiens, Hep3B, read-out: IC50, dose of PTX required to reduce 50% Hep-3B growth, 72 hours of incubation, cells detached and counted): 0.015 ± 0.002 µg/mL (≈ 0.0176 µM)
- IC90 ([1]; Homo sapiens, Hep3B, read-out: IC90, dose of PTX required to reduce 90% Hep-3B growth, 72 hours of incubation, cells detached and counted): 0.025 ± 0.008 µg/mL (≈ 0.0293 µM)
- IC50 ([1]; Homo sapiens, Hep3B, restated for comparison with tissue concentrations, read-out: IC50 of the PTX on Hep-3B cells): 0.015 µg/mL (≈ 0.0176 µM)
- Ki67 expression in tumor [2]: Some reduction
- Skin lesions / ulceration at the site of injection ([3]; 10 mg/kg (200 μg/200 μl), local sc injection): did not induce skin ulcers
- Effect on tumor growth compared to CTRL ([3]; series A: 200 μl, PTX 10 mg/kg where present): No significant effect
- % of mice cured ([3]; series A: PTX 200 μg (10 mg/kg) where present, tumor-free after 90 days): 0%
- Day of sacrifice ([3]; series A: single shot 200 μl, PTX 200 μg (10 mg/kg) where present): 33 ± 3
- % of mice tumor-free ([3]; series A: single shot 200 μl, PTX 200 μg (10 mg/kg) where present, at 60 days): 0%
- HCC (TW) (Grams ± SD) ([3]; series A: single shot 200 μl, PTX 200 μg (10 mg/kg) where present, tumor weight at sacrifice): 2.010 ± 0.377 Grams
